According to PubChem BioAssay AID342 (DTP/NCI, 2004):
Where “and” joins values, the source holds several entries; their conditions need not be identical. Identical values can stand only once.

Test system: Swiss mice, Sarcoma 180 sc, mean tumor weight T/C
Assay: NCI In Vivo Anticancer Drug Screen. Data for tumor model Sarcoma 180 (subcutaneous) in Swiss mice
Conditions: endpoint: mean tumor weight, higher = larger tumour
How it was run: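 Tumor-bearing mice, transplantable tumor; readout survival or tumor size; result = T/C, treated vs vehicle control.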

[1] = dose: 125.0 mg/kg/injection, schedule: Q01DX007 (sc), vehicle: steriod suspending solution
[2] = dose: 250.0 mg/kg/injection, schedule: Q01DX007 (sc), vehicle: steriod suspending solution

Question: What does the source list for `CCc1nc(N)nc(N)c1-c1ccc(Cl)c(Cl)c1.[Cl][Pd][Cl]`?
Answer: T/C (dose: 6.6 mg/kg/injection, schedule: Q01DX007 (ip), vehicle: carboxymethylcellulose (CMC)): 95 % of control; T/C (dose: 8.0 mg/kg/injection, schedule: Q01DX007 (ip), vehicle: methylcellulose (MC)): 111 % of control; T/C (dose: 10.0 mg/kg/injection, schedule: Q01DX007 (ip), vehicle: carboxymethylcellulose (CMC)): 49 % of control; T/C (dose: 15.0 mg/kg/injection, schedule: Q01DX007 (ip), vehicle: carboxymethylcellulose (CMC)): 35 % of control; T/C (dose: 15.0 mg/kg/injection, schedule: Q01DX007 (ip), vehicle: methylcellulose (MC)): 55 % of control; T/C (dose: 22.5 mg/kg/injection, schedule: Q01DX007 (ip), vehicle: carboxymethylcellulose (CMC)): 34 % of control; T/C (dose: 30.0 mg/kg/injection, schedule: Q01DX007 (ip), vehicle: methylcellulose (MC)): 51 % of control

Question: How did the T/C [1] turn out when `C[C@]12CC[C@@H]3c4ccc(OC(=O)c5ccccc5)cc4CC[C@H]3[C@@H]1CC[C@@H]2O` was run?
Answer: Its T/C is 47 % of control.

Question: And the T/C [2]?
Answer: Its T/C is 55 % of control.

Question: What about the T/C (dose: 400.0 mg/kg/injection, schedule: Q01DX007 (sc), vehicle: steriod suspending solution) of the same molecule?
Answer: The T/C was 58 % of control and 83 % of control.

Question: And the T/C (dose: 666.0 mg/kg/injection, schedule: Q01DX007 (sc), vehicle: steriod suspending solution)?
Answer: Its T/C is 59 % of control and 62 % of control.

Question: What does the source list for `CCCCn1cnc2c(Sc3c([N+](=O)[O-])ncn3C)nc(N)nc21`?
Answer: T/C (dose: 2.75 mg/kg/injection, schedule: Q#A X014 (ip), vehicle: methylcellulose (MC)): 95 % of control; T/C (dose: 4.15 mg/kg/injection, schedule: Q#A X014 (ip), vehicle: methylcellulose (MC)): 53 % of control; T/C (dose: 6.25 mg/kg/injection, schedule: Q#A X014 (ip), vehicle: methylcellulose (MC)): 66 % of control; T/C (dose: 9.37 mg/kg/injection, schedule: Q#A X014 (ip), vehicle: methylcellulose (MC)): 51 % of control

Question: Which results are given for `CCCOP(=S)(N1CC1)N1CC1`?
Answer: T/C (dose: 6.65 mg/kg/injection, schedule: Q#A X014 (ip), vehicle: methylcellulose (MC)): 74 % of control; T/C (dose: 6.65 mg/kg/injection, schedule: Q#A X014 (ip), vehicle: saline): 80 % of control and 89 % of control; T/C (dose: 10.0 mg/kg/injection, schedule: Q#A X014 (ip), vehicle: methylcellulose (MC)): 67 % of control; T/C (dose: 15.0 mg/kg/injection, schedule: Q#A X014 (ip), vehicle: methylcellulose (MC)): 47 % of control; T/C (dose: 15.0 mg/kg/injection, schedule: Q#A X014 (ip), vehicle: saline): 37 % of control and 40 % of control

Question: `CO[C@H]1C(=O)C[C@H]2[C@@H]3CC=C4C[C@@H](O)CC[C@]4(C)[C@H]3CC[C@]12C` was tested. Which T/C (dose: 2.5 mg/kg/injection, schedule: Q01DX007 (sc), vehicle: steriod suspending solution) did it give?
Answer: The T/C was 92 % of control.

Question: What about the T/C (dose: 5.0 mg/kg/injection, schedule: Q01DX007 (sc), vehicle: steriod suspending solution) of the same molecule?
Answer: The T/C was 101 % of control.

Question: What about the T/C (dose: 10.0 mg/kg/injection, schedule: Q01DX007 (sc), vehicle: steriod suspending solution) of the same molecule?
Answer: The T/C was 89 % of control.

Question: What about the T/C (dose: 20.0 mg/kg/injection, schedule: Q01DX007 (sc), vehicle: steriod suspending solution) of the same molecule?
Answer: Its T/C is 94 % of control.

Question: And the T/C (dose: 40.0 mg/kg/injection, schedule: Q01DX007 (sc), vehicle: steriod suspending solution)?
Answer: The T/C was 93 % of control and 107 % of control.

Question: And the T/C (dose: 80.0 mg/kg/injection, schedule: Q01DX007 (sc), vehicle: steriod suspending solution)?
Answer: Its T/C is 116 % of control and 117 % of control.

Question: `CC1(C)N=C(N)N=C(N)N1c1cccc(Cl)c1` was tested. Which T/C (dose: 3.97 mg/kg/injection, schedule: Q01DX007 (ip), vehicle: carboxymethylcellulose (CMC)) did it give?
Answer: Its T/C is 83 % of control.

Question: And the T/C (dose: 6.95 mg/kg/injection, schedule: Q01DX007 (ip), vehicle: carboxymethylcellulose (CMC))?
Answer: Its T/C is 85 % of control.

Question: What about the T/C (dose: 13.9 mg/kg/injection, schedule: Q01DX007 (ip), vehicle: carboxymethylcellulose (CMC)) of the same molecule?
Answer: Its T/C is 68 % of control.

Question: What about the T/C (dose: 27.8 mg/kg/injection, schedule: Q01DX007 (ip), vehicle: carboxymethylcellulose (CMC)) of the same molecule?
Answer: The T/C was 74 % of control.

Question: Which results are given for `Nc1nc2ncc(CNc3ccc(C(=O)NC(CCC(=O)O)C(=O)O)cc3)nc2c(=O)[nH]1` (centres undefined)?
Answer: T/C (dose: 6.31 mg/kg/injection, schedule: Q01DX007 (ip), vehicle: carboxymethylcellulose (CMC)): 84 % of control; T/C (dose: 12.62 mg/kg/injection, schedule: Q01DX007 (ip), vehicle: carboxymethylcellulose (CMC)): 76 % of control; T/C (dose: 25.25 mg/kg/injection, schedule: Q01DX007 (ip), vehicle: carboxymethylcellulose (CMC)): 56 % of control; T/C (dose: 50.5 mg/kg/injection, schedule: Q01DX007 (ip), vehicle: carboxymethylcellulose (CMC)): 74 % of control

Question: What does the source list for `CC(=O)[C@H]1CC[C@H]2[C@@H]3CCC4=CC(=O)CC[C@]4(C)[C@H]3CC[C@]12C`?
Answer: T/C [1]: 89 % of control; T/C [2]: 76 % of control; T/C (dose: 500.0 mg/kg/injection, schedule: Q01DX007 (sc), vehicle: steriod suspending solution): 61 % of control; T/C (dose: 1000.0 mg/kg/injection, schedule: Q01DX007 (sc), vehicle: steriod suspending solution): 79 % of control

Question: For `N#CCOC(=O)CCC(NC(=O)OCc1ccccc1)C(N)=O` (centres undefined), which T/C (dose: 50.0 mg/kg/injection, schedule: Q01DX007 (ip), vehicle: carboxymethylcellulose (CMC)) is on record?
Answer: Its T/C is 94 % of control.
